Patent US6391914B1, “Optically active aminopentane derivatives” (Fujimoto Brothers Co., Ltd., priority 1998, dated 2002)
Structures can show the parent of a compound that is named as a salt. Where two headings read alike, the source gives them in different places.

What was measured:
D2 receptor = target: T1, D2 receptor (Rattus norvegicus, UniProt P61169); assay: Receptor affinity, spiperone binding; design: species or system rats
T1 construct: from tissue; host or cells: rat brain membranes
Procedure: (§1) The receptor solution was prepared as follows. After the rats were decapitated, brain was immediately isolated and weighed. Thereafter, brain samples were homogenized in ten times volumes of ice-cold 0.35 mol/L sucrose (pH 7.4) using glass homogenizer with Teflon pestle, which was revolted by motors. The homogenate was centrifuged at 4° C. at 900×g for 10 min and the supernatant was, furthermore, recentrifuged at 4° C. at 22,000×g for 20 min. The precipitate was suspended with addition of 5 mmol/L phosphate buffer solution (pH 7.4). After the suspension was incubated at 37° C. for 30 min, the suspension was recentrifuged at 4° C. at 20,000×g for 20 min. […]
(§2) ^3H-prazocin was used as a ligand. […] In addition, the nonspecific binding was evaluated with binding value of ^3H-prazocin in the presence of 0.1 μmol/L prazocin. […] After 10 ml of scintillation cocktail was put in it, the radioactivity was measured. Affinity of the compounds of the invention to α1 receptor was evaluated from the inhibition rate of binding between α1 receptor and the ligand.
(§3) Affinities of the compounds of the invention to receptors of α2, D1, D2, 5-HT1 and 5-HT2 were respectively determined in the same manner, while used 0.7 nmol/L ^3H-rauwolscine, 1.4 nmol/L ^3H-SCH-23390, 2.0 nmol/L spiperone, 2 nmol/L ^3H-5-HT and 0.5 nmol/L ^3H-ketanserin as each ligands. […]

5-HT2 receptor = target: T2, 5-HT2 receptor (Rattus norvegicus, UniProt P14842); assay: Receptor affinity, 3H-ketanserin binding; design: species or system rats
T2 construct: from tissue; host or cells: rat brain membranes
Procedure: as §1, §2, §3

[1] = test system: isolated rat brain stem (electric-stimulated); assay: Biogenic amines released from the rat brain stem by electrostimulation; settings: for Minimum dose causing to release noradrenaline from electric-stimulated brain stem: electrostimulation 3 Hz, 1 ms, 60 V; for Minimum dose causing to release serotonin from electric-stimulated brain stem / Minimum dose causing to release dopamine from electric-stimulated brain stem: electrostimulation
α1 receptor = assay: Receptor affinity, 3H-prazocin binding; design: species or system rats; settings: 0.25 nmol/L 3H-prazocin; read-out: Affinity to α1 receptor: concentration showing 50% inhibition between ligand and receptor
Procedure: (§4) The receptor solution was prepared as follows. After the rats were decapitated, brain was immediately isolated and weighed. Thereafter, brain samples were homogenized in ten times volumes of ice-cold 0.35 mol/L sucrose (pH 7.4) using glass homogenizer with Teflon pestle, which was revolted by motors. The homogenate was centrifuged at 4° C. at 900×g for 10 min and the supernatant was, furthermore, recentrifuged at 4° C. at 22,000×g for 20 min. The precipitate was suspended with addition of 5 mmol/L phosphate buffer solution (pH 7.4). After the suspension was incubated at 37° C. for 30 min, the suspension was recentrifuged at 4° C. at 20,000×g for 20 min. The precipitate was resuspended in 10 ml of 5 mmol/L phosphate buffer solution (pH 8.0) to be receptor solution.
^3H-prazocin was used as a ligand. 0.25 nmol/L of ^3H-prazocin, the compounds of the invention and the receptor solution, which were respectively prepared in 5 mmol/L phosphate buffer (pH 8), were put in tube and the mixture was incubated at 25° C. for 90 min. In addition, the nonspecific binding was evaluated with binding value of ^3H-prazocin in the presence of 0.1 μmol/L prazocin. […] After 10 ml of scintillation cocktail was put in it, the radioactivity was measured. Affinity of the compounds of the invention to α1 receptor was evaluated from the inhibition rate of binding between α1 receptor and the ligand.

D1 receptor = target: T3, D1 receptor (Rattus norvegicus, UniProt P18901); assay: Receptor affinity, 3H-SCH-23390 binding; design: species or system rats
T3 construct: from tissue; host or cells: rat brain membranes
Procedure: as §1, §2, §3

5-HT1 receptor = assay: Receptor affinity, 3H-5-HT binding; design: species or system rats; settings: 2 nmol/L 3H-5-HT; read-out: Affinity to 5-HT1 receptor: concentration showing 50% inhibition between ligand and receptor
Procedure: as §1, §2, §3

α2 receptor = assay: Receptor affinity, 3H-rauwolscine binding; design: species or system rats; settings: 0.7 nmol/L 3H-rauwolscine, read-out: Affinity to α2 receptor: concentration showing 50% inhibition between ligand and receptor
Procedure: as §4
^3H-prazocin was used as a ligand. 0.25 nmol/L of ^3H-prazocin, the compounds of the invention and the receptor solution, which were respectively prepared in 5 mmol/L phosphate buffer (pH 8), were put in tube and the mixture was incubated at 25° C. for 90 min. In addition, the nonspecific binding was evaluated with binding value of ^3H-prazocin in the presence of 0.1 μmol/L prazocin. The binding assay was carried out as follows. After ^3H-prazocin (binding type: B) bound to receptor, only the binding type of ^3H-prazocin was collected using B/F separator (Brandel, USA) with glass fiber filter (pore size: 0.5 μm Whatman GF/C), and free type of prazocin (free type: F) was removed. Glass-fiber filter, absorbing the binding type of ^3H-prazocin, was washed with ice-cold saline solution and transferred to vial. After 10 ml of scintillation cocktail was put in it, the radioactivity was measured. Affinity of the compounds of the invention to α1 receptor was evaluated from the inhibition rate of binding between α1 receptor and the ligand.
as §3

mice = assay: Toxicity test in mice in the single administration; assay type: in vivo; settings: 100 mg/kg p.o., observed two weeks

T3 sequence (P18901 whole entry): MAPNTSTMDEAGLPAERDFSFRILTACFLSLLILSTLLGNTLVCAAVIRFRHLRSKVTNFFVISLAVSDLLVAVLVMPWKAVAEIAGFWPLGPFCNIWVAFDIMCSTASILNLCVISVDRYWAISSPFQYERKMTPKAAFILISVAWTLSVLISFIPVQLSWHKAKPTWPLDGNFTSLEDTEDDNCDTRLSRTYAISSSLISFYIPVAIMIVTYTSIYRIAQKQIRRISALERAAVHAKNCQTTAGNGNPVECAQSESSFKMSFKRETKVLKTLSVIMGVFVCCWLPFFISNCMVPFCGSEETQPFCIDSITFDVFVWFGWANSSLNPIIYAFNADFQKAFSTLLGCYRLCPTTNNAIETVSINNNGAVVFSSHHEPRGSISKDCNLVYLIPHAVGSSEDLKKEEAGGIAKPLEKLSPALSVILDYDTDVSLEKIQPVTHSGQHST
T1 sequence (P61169 whole entry): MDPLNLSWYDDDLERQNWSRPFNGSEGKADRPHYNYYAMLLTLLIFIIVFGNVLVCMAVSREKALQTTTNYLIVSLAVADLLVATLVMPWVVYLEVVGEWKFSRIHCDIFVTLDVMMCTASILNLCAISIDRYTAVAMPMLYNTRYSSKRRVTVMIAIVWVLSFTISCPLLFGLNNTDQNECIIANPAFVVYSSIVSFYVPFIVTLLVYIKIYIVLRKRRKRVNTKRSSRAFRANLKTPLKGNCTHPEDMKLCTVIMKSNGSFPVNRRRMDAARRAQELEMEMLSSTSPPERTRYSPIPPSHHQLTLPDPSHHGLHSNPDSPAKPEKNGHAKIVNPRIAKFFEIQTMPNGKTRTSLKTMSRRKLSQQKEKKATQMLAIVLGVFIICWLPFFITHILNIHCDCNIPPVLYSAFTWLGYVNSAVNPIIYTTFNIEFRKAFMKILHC
T2 sequence (P14842 whole entry): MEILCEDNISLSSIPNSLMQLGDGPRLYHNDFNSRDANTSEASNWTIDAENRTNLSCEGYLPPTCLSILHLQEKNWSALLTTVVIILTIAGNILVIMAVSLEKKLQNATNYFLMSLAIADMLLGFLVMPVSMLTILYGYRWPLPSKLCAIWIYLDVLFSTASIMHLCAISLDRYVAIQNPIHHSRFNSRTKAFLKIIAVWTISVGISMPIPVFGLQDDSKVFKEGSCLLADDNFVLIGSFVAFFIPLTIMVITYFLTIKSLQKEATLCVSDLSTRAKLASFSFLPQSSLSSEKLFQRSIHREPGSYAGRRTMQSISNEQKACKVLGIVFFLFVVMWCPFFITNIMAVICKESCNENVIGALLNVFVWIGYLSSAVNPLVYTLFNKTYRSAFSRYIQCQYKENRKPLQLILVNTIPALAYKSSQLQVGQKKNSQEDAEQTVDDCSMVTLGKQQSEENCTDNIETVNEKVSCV

SMILES	IC50 (D2 receptor)	IC50 (5-HT2 receptor)	Minimum dose causing to release noradrenaline from electric-stimulated brain stem [1]	Minimum dose causing to release serotonin from electric-stimulated brain stem [1]	IC50 (α1 receptor)	IC50 (D1 receptor)	IC50 (5-HT1 receptor)	IC50 (α2 receptor)	Minimum dose causing to release dopamine from electric-stimulated brain stem [1]	IC50 (α2 receptor; hydrochloride)	Noradrenaline, serotonin and dopamine release on electrostimulation (FIG. 1) ([1]; electrostimulated brain stem)	Survival of mice after single administration (mice)
CCCNC(CCC)Cc1cc2ccccc2o1.Cl (racemic) [Racemic compound, (±)-1-(benzofuran-2-yl)-2-propylaminopentane hydrochloride]	> 10 µM	20 µM	5 µg/mL	1 µg/mL	> 10 µM	> 10 µM	> 10 µM	1 µM	–	–	–	–
CCCNC(CCC)Cc1cc2ccccc2o1.Cl (single isomer, unassigned; (+)) [(+)-Isomer, (+)-1-(benzofuran-2-yl)-2-propylaminopentane hydrochloride]	–	> 10 µM	0.5 µg/mL	10 µg/mL	–	–	–	–	5 µg/mL	2.6 µM	–	–
CCCNC(CCC)Cc1cc2ccccc2o1 (single isomer, unassigned; (-)) [The compound of the invention, (−)-1-(benzofuran-2-yl)-2-propylaminopentane hydrochloride]	> 10 µM	–	0.01 µg/mL	0.0005 µg/mL	> 10 µM	> 10 µM	> 10 µM	–	0.05 µg/mL	3.1 µM	confirmed to enhance noradrenaline, serotonin and dopamine release	every three numbers of mice survived
